Like-named read-outs stand apart in the source and are kept apart here.
How the values were obtained:
BTK-WT = biological target: T1, BTK-WT (Homo sapiens, UniProt Q06187); experiment: Btk in vitro inhibitory activity (one of Method A TR-FRET, Method B electrophoretic mobility shift, Method C radiometric filter binding); format: biochemical; conditions: read-out: IC50 BTK-WT
T1 construct: purified from insect cells as a full-length construct containing an N-terminal 6X-His tag; His6 (N); made in house; host or cells: insect cells (baculovirus Sf21 in Method B)
T1 sequence (Q06187 whole entry): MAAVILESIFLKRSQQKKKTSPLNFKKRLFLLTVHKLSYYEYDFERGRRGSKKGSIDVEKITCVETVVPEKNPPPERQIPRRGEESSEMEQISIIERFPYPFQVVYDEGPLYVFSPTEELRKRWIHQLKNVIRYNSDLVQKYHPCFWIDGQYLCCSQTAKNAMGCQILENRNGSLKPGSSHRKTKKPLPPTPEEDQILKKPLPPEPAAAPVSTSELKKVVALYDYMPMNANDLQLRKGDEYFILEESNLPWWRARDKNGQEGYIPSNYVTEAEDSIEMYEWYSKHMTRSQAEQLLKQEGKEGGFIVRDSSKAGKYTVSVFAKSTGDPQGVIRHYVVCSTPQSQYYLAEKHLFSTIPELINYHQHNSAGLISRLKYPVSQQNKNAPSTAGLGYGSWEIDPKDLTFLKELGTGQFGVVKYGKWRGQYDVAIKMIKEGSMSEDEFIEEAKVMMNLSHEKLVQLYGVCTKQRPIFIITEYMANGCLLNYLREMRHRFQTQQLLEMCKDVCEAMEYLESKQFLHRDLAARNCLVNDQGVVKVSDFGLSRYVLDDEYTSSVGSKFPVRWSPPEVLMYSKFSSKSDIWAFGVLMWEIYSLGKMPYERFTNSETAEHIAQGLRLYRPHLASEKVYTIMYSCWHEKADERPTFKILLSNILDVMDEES
Protocol: Btk kinase activity is determined using a time-resolved fluorescence resonance energy transfer (TR-FRET) methodology. Measurements are performed in a reaction volume of 50 μL using 96-well assay plates. […] The reaction is quenched by the addition of 1.2 equivalents of EDTA (relative to divalent cation) in 25 μL of 1× Lance buffer (Perkin-Elmer). […] The TR-FRET signal is measured on a multimode plate reader with an excitation wavelength (λEx) of 330 nm and detection wavelengths (λEm) of 615 and 665 nm. Activity is determined by the ratio of the fluorescence at 665 nm to that at 615 nm. For each compound, enzyme activity is measured at various concentrations of compound. Negative control reactions are performed in the absence of inhibitor in replicates of six, and two no-enzyme controls are used to determine baseline fluorescence levels. Inhibition constants, Ki(app), were obtained using the program BatchKi(Kuzmic et al. (2000), Anal. Biochem. 286:45-50). IC50s are obtained according to the equation:
IC50={Ki(app)/(1+[ATP]/Km^ATP)}+[E]total/2;
Kinase activity is measured in vitro using electrophoretic mobility shift assay. The kinase reactions are assembled in a total volume of 25 μL in 384 well plates. […] The reaction is incubated for one hour and is quenched by the addition of 45 μL of termination buffer (100 mM HEPES, pH7.5, 0.01% Triton X-100, 30 mM EDTA). The terminated reactions are analyzed using 12 channel LabChip® 3000 microfluidic detection instrument (Caliper Life Sciences). […] Change in the relative fluorescence intensity of the substrate and product peaks is the parameter measured, reflecting enzyme activity. In the presence of an inhibitor, the ratio between product and substrate is altered: the signal of the product decreases, while the signal of the substrate increases.
Activity in each sample is determined as the product to sum ratio (PSR): P/(S+P), where P is the peak height of the product peptide and S is the peak height of the substrate peptide. For each compound, enzyme activity is measured at various concentrations (12 concentrations of compound spaced by 3× dilution intervals). Negative control samples (0%-inhibition in the absence of inhibitor) and positive control samples (100%-inhibition, in the presence of 20 mM EDTA) are assembled in replicates of four and are used to calculate %-inhibition values for each inhibitor at each concentration. Percent inhibition (Pinh) is determined using following equation:
Pinh=(PSR0%-PSRinh)/(PSR0%−PSR100%)*100, where PSRinh is the product sum ratio in the presence of inhibitor, PSR0% is the average product sum ration in the absence of inhibitor and PSR100% is the average product sum ratio in 100%-inhibition control samples;
The IC50 values of inhibitors are determined by 4 parameter sigmoidal dose-response model fitting of the inhibition curves (Pinh versus inhibitor concentration) using XLfit 4 software.
Human Btk kinase (Genbank accession # NP_000052) was purified from insect cells as a full-length construct containing an N-terminal 6X-His tag. Btk kinase activity was determined using a radiometric filter binding assay. Measurements are performed in a low μL reaction volume 384-well assay plates. […] IC50 values and curve fits were obtained using Prism (GraphPad Software).

ITK = biological target: T2, ITK (Homo sapiens, UniProt Q08881); experiment: Inhibition of a panel of kinases, in vitro HotSpot kinase assay: ITK; format: biochemical
T2 sequence (Q08881 1-620): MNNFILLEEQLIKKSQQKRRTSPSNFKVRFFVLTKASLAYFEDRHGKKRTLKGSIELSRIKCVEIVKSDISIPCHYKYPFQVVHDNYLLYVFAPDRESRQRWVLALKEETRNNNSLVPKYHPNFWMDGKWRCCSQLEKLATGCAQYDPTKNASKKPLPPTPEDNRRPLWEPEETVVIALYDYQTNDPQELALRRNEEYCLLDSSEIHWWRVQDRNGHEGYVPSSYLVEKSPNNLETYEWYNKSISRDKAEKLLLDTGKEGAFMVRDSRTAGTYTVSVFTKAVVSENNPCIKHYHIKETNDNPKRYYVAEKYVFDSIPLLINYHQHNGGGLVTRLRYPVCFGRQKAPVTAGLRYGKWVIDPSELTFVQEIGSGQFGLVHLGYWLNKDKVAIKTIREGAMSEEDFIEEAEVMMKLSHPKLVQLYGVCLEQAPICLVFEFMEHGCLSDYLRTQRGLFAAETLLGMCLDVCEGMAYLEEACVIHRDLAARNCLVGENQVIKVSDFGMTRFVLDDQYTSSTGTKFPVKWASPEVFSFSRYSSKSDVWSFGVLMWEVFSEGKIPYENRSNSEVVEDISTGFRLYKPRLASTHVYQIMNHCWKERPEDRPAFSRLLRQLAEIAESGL
Protocol: The degree of inhibition of a panel of kinases is determined using the in vitro HotSpot kinase assay (purified enzymes, ^33P-ATP, an appropriate substrate and 1 μM ATP).

[1] = Table 15, C compounds, 1 μM ATP

Compound | IC50 (BTK-WT; Table 15, C compounds) [nM] | IC50 (ITK; [1]) [nM] | IC50 (BTK-WT; E compounds, Table 17) [nM] | IC50 (ITK; E compounds, Table 17) [nM]
C=CC(=O)N1CCC[C@@H](N(C(=O)C=C)c2nnc(C(N)=O)c(Nc3ccc(C4CC4)cc3)n2)C1 [Example C-49, (R)-3-(N-(1-acryloylpiperidin-3-yl)acrylamido)-5-(4-cyclopropylphenyl-amino)-1,2,4-triazine-6-carboxamide] | ≤ 10 | 1000 to 10000 | – | –
C=CC(=O)N1CCC[C@@H](N(C(=O)C=C)c2nnc(C(N)=O)c(Nc3ccc(C4(C#N)CC4)cc3)n2)C1 [Example C-50, (R)-3-(N-(1-acryloylpiperidin-3-yl)acrylamido)-5-(4-(1-cyanocyclopropyl)phenylamino)-1,2,4-triazine-6-carboxamide] | ≤ 10 | 100 to 1000 | – | –
CN(c1cnc(C(N)=O)c(Nc2ccc(C3(C)CCN(C4CC4)CC3)cc2)n1)[C@@H]1CCN(C(=O)C(F)(F)F)C1 [Example C-66, (R)-3-(4-(1-cyclopropyl-4-methylpiperidin-4-yl)phenylamino)-5-(methyl(1-(2,2,2-trifluoroacetyl)pyrrolidin-3-yl)amino)pyrazine-2-carboxamide] | ≤ 10 | ≤ 10 | – | –
CN(c1cnc(C(N)=O)c(Nc2ccc(C3(C)CCN(C4CCCC4)CC3)cc2)n1)[C@@H]1CCN(C(=O)C(F)(F)F)C1 [Example C-68, (R)-3-(4-(1-cyclopentyl-4-methylpiperidin-4-yl)phenylamino)-5-(methyl(1-(2,2,2-trifluoroacetyl)pyrrolidin-3-yl)amino)pyrazine-2-carboxamide] | ≤ 10 | ≤ 10 | – | –
C=CC(=O)N1CCC[C@@H](Nc2nnc(C(N)=O)c(Nc3ccc(-c4cnn(C(=O)C=C)c4)cc3)n2)C1 [Example C-74] | ≤ 10 | 10 to 100 | – | –
C=CC(=O)N1CCC[C@@H](Nc2nnc(C(N)=O)c(Nc3cccc(-c4nccs4)c3)n2)C1 [Example C-86, (R)-3-(1-acryloylpiperidin-3-ylamino)-5-(3-(thiazol-2-yl)phenylamino)-1,2,4-triazine-6-carboxamide] | ≤ 10 | 10 to 100 | – | –
C=CC(=O)N1CCC[C@@H](Nc2nnc(C(N)=O)c(Nc3ccc4c(c3)CCC(=O)N4C)n2)C1 [Example C-87, (R)-3-(1-acryloylpiperidin-3-ylamino)-5-(1-methyl-2-oxo-1,2,3,4-tetrahydroquinolin-6-ylamino)-1,2,4-triazine-6-carboxamide] | ≤ 10 | ≤ 10 | – | –
C=CC(=O)N1CCC[C@H](Nc2nnc(C(N)=O)c(Nc3ccc(-c4ncco4)cc3)n2)C1 [Example E-18, (S)-3-(1-acryloylpiperidin-3-ylamino)-5-(4-(oxazol-2-yl)phenylamino)-1,2,4-triazine-6-carboxamide] | – | – | ≤ 10 | 10 to 100
C=CC(=O)N[C@@H]1CCCN(c2nnc(C(N)=O)c(Nc3ccc(C(C)C)cc3)n2)C1 [Example E-21, (R)-3-(3-acrylamidopiperidin-1-yl)-5-(4-isopropylphenylamino)-1,2,4-triazine-6-carboxamide] | – | – | 10 to 100 | 100 to 1000

Other lines, results leading:

IC50 (BTK-WT; Table 15, C compounds) [nM] | IC50 (ITK; [1]) [nM] | IC50 (BTK-WT; E compounds, Table 17) [nM] | IC50 (ITK; E compounds, Table 17) [nM] | Compound
≤ 10 | ≤ 10 | – | – | C=CC(=O)N1CCC[C@@H](Nc2nnc(C(N)=O)c(Nc3ccc(C4(C#N)CC4)cc3)n2)C1 [Example C-48, (R)-3-(1-acryloylpiperidin-3-ylamino)-5-(4-(1-cyanocyclopropyl)phenylamino)-1,2,4-triazine-6-carboxamide]
≤ 10 | 10 to 100 | – | – | C=CC(=O)N1CCC[C@@H](Nc2nnc(C(N)=O)c(Nc3cccc(C)c3)n2)C1 [Example C-55, (R)-3-(1-acryloylpiperidin-3-ylamino)-5-(m-tolylamino)-1,2,4-triazine-6-carboxamide]
≤ 10 | ≤ 10 | – | – | C=CC(=O)N1CCC[C@@H](Nc2nnc(C(N)=O)c(Nc3ccc(CN[C@@H](C)C(C)(C)C)cc3)n2)C1 [Example C-73, 3-((R)-1-acryloylpiperidin-3-ylamino)-5-(4-(((S)-3,3-dimethylbutan-2-ylamino)methyl)phenyl-amino)-1,2,4-triazine-6-carboxamide]
– | – | ≤ 10 | 10 to 100 | C=CC(=O)N1CCC[C@@H](Nc2nnc(C(N)=O)c(Nc3ccc(C(C)C)cc3)n2)[C@@H]1C [Example E-17, 3-((2S,3R)-1-acryloyl-2-methylpiperidin-3-ylamino)-5-(4-isopropylphenylamino)-1,2,4-triazine-6-carboxamide]
– | – | ≤ 10 | 100 to 1000 | C=CC(=O)N1CCCC[C@H](Nc2nnc(C(N)=O)c(Nc3ccc(C(C)C)cc3)n2)C1 [Example E-19, (S)-3-(1-acryloylazepan-3-ylamino)-5-(4-isopropylphenylamino)-1,2,4-triazine-6-carboxamide]
– | – | ≤ 10 | ≤ 10 | C=CC(=O)N1CCCC[C@@H](Nc2nnc(C(N)=O)c(Nc3ccc(C(C)C)cc3)n2)C1 [Example E-20, (R)-3-(1-acryloylazepan-3-ylamino)-5-(4-isopropylphenylamino)-1,2,4-triazine-6-carboxamide]
– | – | 10 to 100 | 100 to 1000 | C=CC(=O)N[C@H]1CCCN(c2nnc(C(N)=O)c(Nc3ccc(C(C)C)cc3)n2)C1 [Example E-22, (S)-3-(3-acrylamidopiperidin-1-yl)-5-(4-isopropylphenylamino)-1,2,4-triazine-6-carboxamide]
– | – | ≤ 10 | 10 to 100 | C=CC(=O)N1CCC[C@H](Nc2nnc(C(N)=O)c(Nc3ccc(C(C)(C)C)cc3)n2)C1 [Example E-23, (S)-3-(1-acryloylpiperidin-3-ylamino)-5-(4-tert-butylphenylamino)-1,2,4-triazine-6-carboxamide]
– | – | ≤ 10 | 100 to 1000 | C=CC(=O)N[C@H]1CCCC[C@H]1Nc1nnc(C(N)=O)c(Nc2ccc(C(C)C)cc2)n1 [Example E-25, 3-((1R,2S)-2-acrylamidocyclohexyl-amino)-5-(4-isopropylphenylamino)-1,2,4-triazine-6-carboxamide]
– | – | ≤ 10 | 10 to 100 | C=CC(=O)N1CCC[C@H](N(C)c2nnc(C(N)=O)c(Nc3ccc(C(C)C)cc3)n2)C1 [Example E-27, (S)-3-((1-acryloylpiperidin-3-yl)(methyl)amino)-5-(4-isopropylphenylamino)-1,2,4-triazine-6-carboxamide]
– | – | ≤ 10 | 100 to 1000 | C=CC(=O)N[C@@H]1CCCC[C@H]1Nc1nnc(C(N)=O)c(Nc2ccc(C(C)C)cc2)n1 [Example E-28, 3-((1R,2R)-2-acrylamidocyclo-hexylamino)-5-(4-isopropylphenylamino)-1,2,4-triazine-6-carboxamide]
– | – | ≤ 10 | 100 to 1000 | C=CC(=O)N[C@H]1CCCC[C@@H]1Nc1nnc(C(N)=O)c(Nc2ccc(C(C)C)cc2)n1 [Example E-29, 3-((1S,2S)-2-acrylamidocyclohexyl-amino)-5-(4-isopropylphenylamino)-1,2,4-triazine-6-carboxamide]

Reference: US20210070748A1, “INHIBITORS OF BRUTONS TYROSINE KINASE” (Pharmacyclics LLC, priority 2015, published 2021)
